Test results reported in PubChem BioAssay (NCI).
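Following 48 hours of exposure in 96-well plates, responses at five concentrations were used to interpolate endpoints linearly. TGI denotes the concentration required for complete inhibition of growth.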 Where a SMILES comes first, the peptide text is derived from it. [ ]: non-standard residue; d: D form. The star is where a group is joined. ξ: configuration not given here. NMeY = CN[C@@H](Cc1ccc(O)cc1)C(=O)O; Cbz = O=C(OCc1ccccc1)*; ξA = CC(N)C(=O)O

What was measured:
Experiment in all cases: growth of human tumour cells (NCI), 48 h
SR leukemia = test system: SR leukemia
PC-3 prostate = test system: PC-3 prostate
UO-31 renal = test system: UO-31 renal
U251 CNS = test system: U251 CNS
KM12 colon = test system: KM12 colon
HL-60(TB) leukemia = test system: HL-60(TB) leukemia
UACC-62 melanoma = test system: UACC-62 melanoma
HCC-2998 colon = test system: HCC-2998 colon
MALME-3M melanoma = test system: MALME-3M melanoma
OVCAR-8 ovarian = test system: OVCAR-8 ovarian
SNB-19 CNS = test system: SNB-19 CNS
SK-OV-3 ovarian = test system: SK-OV-3 ovarian

Row | Compound | TGI (SR leukemia) [µM] | TGI (PC-3 prostate) [µM] | TGI (UO-31 renal) [µM] | TGI (U251 CNS) [µM] | TGI (KM12 colon) [µM] | TGI (HL-60(TB) leukemia) [µM] | TGI (UACC-62 melanoma) [µM] | TGI (HCC-2998 colon) [µM] | TGI (MALME-3M melanoma) [µM] | TGI (OVCAR-8 ovarian) [µM] | TGI (SNB-19 CNS) [µM] | TGI (SK-OV-3 ovarian) [µM]
1 | COc1ccc(C[C@H]2COC(=O)[C@@H]2Cc2ccc(Br)cc2)cc1OC | > 94 | 52.1 | 24.2 | > 100 | > 75.2 | > 61.6 | 96.8 | > 100 | > 89.5 | > 100 | > 61.8 | > 100
2 | COc1ccc(C[C@@H](C(=O)N[C@@H](C)C(N)=O)N(C)C(=O)[C@@H]2CCCN2C(=O)[C@H](CC(C)C)NC(=O)C(C)NC(=O)OCc2ccccc2)cc1 (stereo partly drawn) (Cbz-[ξA]LP[NMeY](Me)A-NH2) | > 100 | > 100 | > 100 | > 100 | > 100 | > 100 | > 100 | > 100 | > 100 | > 100 | > 100 | > 100
3 | COc1ccc2nc3ccc(OC)cc3c(S(=O)Cc3ccccc3)c2c1 (stereo not drawn) | > 29.8 | 27.2 | 22.8 | > 56.1 | 40.5 | 35.9 | 28.5 | 38.4 | 7.87 | 12.7 | 41.5 | 33.9
4 | O=C(Nc1ccccc1)OCCN=c1c2ccccc2ccc2ccccc12 | 54.5 | 49.4 | 39.9 | 69.9 | 44.4 | 44.9 | 49.1 | 25.1 | 46 | 84 | 62.7 | > 100
5 | Cc1cc(C)c(NS(=O)c2ccc(Cl)cc2)c(C)c1 (stereo not drawn) | > 100 | > 100 | > 100 | > 100 | > 100 | > 100 |  | > 100 | > 100 | > 100 | > 100 | 
6 | O=c1[nH][nH]c(=O)n1Cc1ccccc1 | > 100 | > 100 | > 100 | > 100 | > 100 | > 100 | > 100 | > 100 | > 100 | > 100 | > 100 | > 100
7 | COc1ccc2nc3c4c(nccc4c2c1)-c1ncccc1C3=O | 0.0189 | 3.14 | 0.706 | 1.75 | 0.706 | 0.165 | 0.159 | 0.805 | 0.291 | 6.55 | 0.279 | 0.386
8 | Cc1cc(NS(=O)(=O)c2ccc(NO)cc2)no1 | 46.2 | > 100 | > 100 |  | > 100 | > 100 | > 100 | > 100 | > 100 | > 100 | > 100 | > 100
9 | O=C1CSC(c2ccccc2)N1c1ccc(-c2ccc(-n3c(-c4ccccc4)nc4ccccc4c3=O)cc2)cc1 (stereo not drawn) | > 100 | > 100 | > 100 | > 100 | > 100 | > 100 | > 100 | > 100 | > 100 | > 100 | > 100 | > 100
10 | COC(=O)c1cc(/C=C/C(=O)Cc2ccccc2)cn1S(=O)(=O)c1ccccc1 | > 100 | > 100 | > 100 |  | > 100 | > 100 | > 100 | > 100 | > 100 | > 100 | > 100 | > 100
11 | CCCCCCCCCCCCCCCCCCN(C)CC(COC)OP(=O)([O-])OCC[N+](C)(C)C (stereo not drawn) | 8.55 | 1.47 | 20.2 | 2.44 | 1.62 | 8.53 | 14.9 | 3.07 | 26.6 | 14.2 | 2.5 | 25.1
12 | COc1ccc(COCC[C@H](C)OC2OC(CO[Si](C)(C)C(C)(C)C)C(O)C(O)C2O)cc1 (stereo partly drawn) | > 100 | > 100 | > 100 | > 100 | > 100 | > 100 | > 100 | > 100 | > 100 | > 100 | > 100 | > 100
13 | COc1ccc2nc3cccc([N+](=O)[O-])c3c(NCCC(=O)O)c2c1 | > 10 | > 10 |  | > 10 | > 10 | > 10 | > 10 | > 10 | > 10 | > 10 | > 10 | > 10
14 | N#Cc1c(-c2ccccc2)cn(C(=O)c2ccccc2)c1N | > 100 | > 100 | > 100 | > 100 | > 100 | > 100 | > 100 | 0.0659 | > 100 | > 100 | > 100 | > 100
15 | Cc1csc2nc(-c3cc([N+](=O)[O-])c(Cl)cc3Cl)c(/C=N/N=C(N)N)n12 | 4.84 | 38.9 | 29.4 | 30.5 | 32.4 | 28.9 | 27.2 | 22.1 | 35.3 | 36.1 | 36.5 | 
16 | COc1cccc(CCn2c(N)c(-c3cc(Cl)cc(Cl)c3)c3ccc([N+](=O)[O-])cc3c2=O)c1 | > 64.8 | > 61.9 | 25.5 | > 49.3 | > 100 | 5.37 | > 100 | > 31.6 | 32.6 | > 100 | > 44 | > 100
17 | O=c1ccn(C/C=C/c2ccccc2)c(=S)n1C/C=C/c1ccccc1 | > 100 | > 100 | > 100 | > 100 | > 100 | 39.4 | > 100 | > 100 | > 100 | > 100 | > 100 | > 100
18 | CN(C)c1n2c3ccc([N+](=O)[O-])cc3n3c(N(C)C)[n+]4ccccc4c3c2c2cccc[n+]12 | > 100 | > 100 | > 100 | > 100 | > 100 | > 100 | > 100 | > 100 | > 100 | > 100 | > 100 | > 100
19 | CCCCCCC(=O)OC[n+]1ccc(-c2c(COC(=O)NC(C)C)c(COC(=O)NC(C)C)c3n2CCC3)cc1 | 50.9 | > 100 | > 100 | > 100 | > 100 | > 71.4 | > 100 | > 100 | > 100 | > 100 | > 100 | > 100
20 | Nc1c(F)c(F)c2c(c1F)N(CCCCCl)c1ccccc1S2 | > 100 | > 100 | > 100 | > 100 | > 100 | > 100 | > 100 | > 100 | > 100 |  | > 100 | > 100
21 | CCOC(=O)/C(=C\c1c[nH]c2ccccc12)P(=O)(OCC)OCC | 61.1 | 66.6 |  | > 100 | > 100 | 62 | > 100 | > 100 | > 100 | 53.5 | > 100 | 90.4
22 | CC(C)N(C(C)C)S(=O)(=O)CC12CCC(C/C1=N\O)C2 (stereo not drawn) | > 100 | > 100 | > 100 | > 100 | > 100 | > 100 | > 100 | > 100 | > 100 | > 100 | > 100 | > 100
23 | CCOC(=O)c1c2ccccc2n2c(=O)n(-c3ccc(OC)cc3)nnc12 | > 100 | > 66.1 | > 100 | > 31.6 | > 100 | > 100 | 99.6 | > 100 | > 100 | 97.1 | > 79.9 | > 63.9
24 | Cc1cc(-c2nc3cc(F)ccc3s2)ccc1N | > 100 | > 76.2 | 99.4 | > 91.7 | > 100 | > 100 | > 100 | > 100 | > 100 | > 100 | > 88.5 | > 100
25 | Cc1nc(C)c(N2CCN(Cc3ccccc3)CC2)c(=O)[nH]1 | > 100 | > 100 | > 100 | > 100 | > 100 | > 100 | > 100 | > 100 | > 100 | > 100 | > 100 | > 100
26 | C/C(=C\[Si](C)(C)c1ccco1)C(C)(O)[C@H](C)O (stereo partly drawn) | > 100 | > 100 |  | > 100 | > 100 | > 100 | > 100 | > 100 | > 100 | > 100 | > 100 | > 100
27 | CC1(C=O)CC(CCc2ccccc2)NC1Cc1ccc(O)cc1 (stereo not drawn) | 33.9 | 26.7 | 28.4 | 26.5 | 37.5 | 31.8 | 30.3 | 24.9 |  | 43.7 | 28.1 | 33.4
28 | CC(=O)N1C(c2[nH]c3ccccc3c2Cc2ccccc2)CCN1c1ccccc1 (stereo not drawn) | > 10 | > 10 | > 10 |  |  | > 10 |  | > 10 | > 10 | > 10 | > 10 | > 10
